{"source": "ChEMBL document CHEMBL1201862", "about": "“PubChem BioAssay data set” (2004)", "key": {"cells": {"test": "cells", "format": "functional, cell-based", "settings": "INS-1E"}, "[1]": {"test": "HeLa 2N DNA content increase, dose response, cell-based, IC50 (AID 1117349)", "format": "functional"}, "[2]": {"test": "HCT116 cell viability decrease, GSK3B pretreatment – CellTiter-Glo, IC50, dose response (AID 1117339)", "format": "functional", "settings": "HCT-116"}, "[3]": {"test": "Concentration-dependent survival of SW480 colon cancer line, luminescence detection with CellTiter-Glo, half-maximal inhibitory concentration (AID 1117338)", "format": "functional"}, "[4]": {"biological_target": "Heat shock protein HSP 90-alpha (Homo sapiens, UniProt P07900)", "format": "functional, organism-based"}, "[5]": {"biological_target": "T1, DNA repair protein RAD52 homolog (Homo sapiens, UniProt P43351)", "T1 sequence (P43351 whole entry)": "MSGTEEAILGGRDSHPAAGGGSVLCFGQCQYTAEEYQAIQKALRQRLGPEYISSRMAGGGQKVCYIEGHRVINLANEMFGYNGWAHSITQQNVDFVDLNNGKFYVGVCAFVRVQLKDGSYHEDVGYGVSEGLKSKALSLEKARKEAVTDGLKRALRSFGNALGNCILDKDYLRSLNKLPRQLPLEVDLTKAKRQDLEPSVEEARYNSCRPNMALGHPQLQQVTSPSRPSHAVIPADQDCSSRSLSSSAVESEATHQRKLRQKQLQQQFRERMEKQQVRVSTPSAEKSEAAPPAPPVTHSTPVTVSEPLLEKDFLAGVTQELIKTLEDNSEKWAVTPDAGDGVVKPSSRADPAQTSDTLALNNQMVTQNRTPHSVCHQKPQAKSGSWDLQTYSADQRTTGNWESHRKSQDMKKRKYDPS", "format": "functional, biochemical"}, "[6]": {"test": "cytotoxicity toward Colo320 cells – cell-based, CellTiter-Glo luminescence, IC50, dose response (AID 1117334)", "format": "functional", "settings": "COLO 320"}, "[7]": {"biological_target": "T2, Rac GTPase-activating protein 1 (Homo sapiens, UniProt Q9H0H5)", "T2 sequence (Q9H0H5 whole entry)": "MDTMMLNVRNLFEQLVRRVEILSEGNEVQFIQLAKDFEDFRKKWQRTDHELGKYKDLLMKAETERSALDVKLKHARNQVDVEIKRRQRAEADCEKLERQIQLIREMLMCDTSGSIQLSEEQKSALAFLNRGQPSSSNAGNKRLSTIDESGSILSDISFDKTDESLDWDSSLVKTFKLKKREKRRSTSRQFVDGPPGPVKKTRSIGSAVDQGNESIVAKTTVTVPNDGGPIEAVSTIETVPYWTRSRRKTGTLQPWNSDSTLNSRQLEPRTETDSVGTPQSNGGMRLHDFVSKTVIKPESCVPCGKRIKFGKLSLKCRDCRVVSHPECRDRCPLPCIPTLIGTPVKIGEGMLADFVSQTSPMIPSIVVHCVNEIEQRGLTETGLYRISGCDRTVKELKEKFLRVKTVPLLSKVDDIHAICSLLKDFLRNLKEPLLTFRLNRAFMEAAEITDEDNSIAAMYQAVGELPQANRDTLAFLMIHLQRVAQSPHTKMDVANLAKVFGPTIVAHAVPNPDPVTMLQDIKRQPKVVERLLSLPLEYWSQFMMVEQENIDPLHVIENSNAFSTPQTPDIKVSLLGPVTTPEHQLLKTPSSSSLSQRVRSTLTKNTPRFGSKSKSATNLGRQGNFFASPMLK", "test": "MgcRacGAP GTPase-activating activity inhibitors, confirmation, biochemical, ADP Hunter fluorescence, primary and confirmatory (AID 624330)", "format": "functional"}, "[8]": {"test": "cytotoxicity toward HCT116 cells – cell-based, CellTiter-Glo luminescence, IC50, dose response (AID 1117332)", "format": "functional", "settings": "HCT-116"}, "[9]": {"test": "cytotoxicity toward HT-29 cells – cell-based, CellTiter-Glo luminescence, IC50, dose response (AID 1117330)", "format": "functional"}, "Phospholipase A2": {"biological_target": "Phospholipase A2 (Homo sapiens, UniProt P04054)", "sequence (P04054 whole entry)": "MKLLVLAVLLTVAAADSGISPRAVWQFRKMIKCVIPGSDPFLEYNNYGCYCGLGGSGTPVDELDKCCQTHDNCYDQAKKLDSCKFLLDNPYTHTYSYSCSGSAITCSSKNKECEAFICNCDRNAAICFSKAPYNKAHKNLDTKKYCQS", "format": "functional"}, "[10]": {"test": "HeLa 4N DNA content increase, dose response, cell-based, IC50 (AID 1117351)", "format": "functional"}, "[11]": {"test": "CellTiter-Glo luminescent dose response of DLD-1 viability loss (AID 1117352)", "format": "functional"}, "[12]": {"test": "Glucagon-like peptide 1 release potency, NCI-H716 cell line, dose-response, half-maximal inhibitory concentration (AID 1117344)", "format": "functional, cell-based"}, "[13]": {"test": "HeLa cell cytotoxicity, dose response, cytotoxicity control for MgcRacGAP inhibitor project (AID 624300)", "format": "functional"}, "Cysteine protease ATG4B": {"biological_target": "T3, Cysteine protease ATG4B (Homo sapiens, UniProt Q9Y4P1)", "T3 sequence (Q9Y4P1 whole entry)": "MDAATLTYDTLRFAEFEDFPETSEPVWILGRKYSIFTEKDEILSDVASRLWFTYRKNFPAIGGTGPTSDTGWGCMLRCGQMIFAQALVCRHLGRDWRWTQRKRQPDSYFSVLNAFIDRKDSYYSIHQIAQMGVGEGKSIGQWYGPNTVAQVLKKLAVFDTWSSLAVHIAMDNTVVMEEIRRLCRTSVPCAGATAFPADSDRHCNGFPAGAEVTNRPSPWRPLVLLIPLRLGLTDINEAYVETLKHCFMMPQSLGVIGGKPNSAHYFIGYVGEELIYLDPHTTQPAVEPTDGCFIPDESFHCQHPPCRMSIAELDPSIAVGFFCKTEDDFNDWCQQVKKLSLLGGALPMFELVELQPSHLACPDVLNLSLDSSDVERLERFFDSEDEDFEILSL", "format": "functional"}, "[14]": {"test": "RKO cell viability reduction, dose response, CellTiter-Glo luminescence (AID 1117322)", "format": "functional"}, "[15]": {"test": "half-maximal inhibitory concentration for glucagon-like peptide-1 release, STC-1 cell line, dose-response (AID 1117345)", "format": "functional, cell-based"}, "[16]": {"test": "SNU-C1 cell viability reduction, dose response, CellTiter-Glo luminescence (AID 1117323)", "format": "functional, cell-based"}, "HEK293 [17]": {"test_system": "HEK293", "test": "cells", "settings": "Homo sapiens"}, "HEK293 [18]": {"test_system": "HEK293", "test": "cells", "settings": "Homo sapiens", "remark": "listed apart in the source"}, "[19]": {"test": "Shn3 3'UTR reporter inhibitors, dose response, cell-based, Clone20 osteoblasts, firefly luciferase, cherry-picked (AID 624132)", "format": "functional"}, "[20]": {"test": "HepG2 cell cytotoxicity, dose response, cytotoxicity control for Shn3 inhibitor project, CellTiter-Glo, cherry-picked (AID 624134)", "format": "functional, cell-based"}, "[21]": {"biological_target": "E3 ubiquitin-protein ligase UHRF1 (Homo sapiens, UniProt Q96T88)", "sequence (Q96T88 whole entry, the tested form may be a part)": "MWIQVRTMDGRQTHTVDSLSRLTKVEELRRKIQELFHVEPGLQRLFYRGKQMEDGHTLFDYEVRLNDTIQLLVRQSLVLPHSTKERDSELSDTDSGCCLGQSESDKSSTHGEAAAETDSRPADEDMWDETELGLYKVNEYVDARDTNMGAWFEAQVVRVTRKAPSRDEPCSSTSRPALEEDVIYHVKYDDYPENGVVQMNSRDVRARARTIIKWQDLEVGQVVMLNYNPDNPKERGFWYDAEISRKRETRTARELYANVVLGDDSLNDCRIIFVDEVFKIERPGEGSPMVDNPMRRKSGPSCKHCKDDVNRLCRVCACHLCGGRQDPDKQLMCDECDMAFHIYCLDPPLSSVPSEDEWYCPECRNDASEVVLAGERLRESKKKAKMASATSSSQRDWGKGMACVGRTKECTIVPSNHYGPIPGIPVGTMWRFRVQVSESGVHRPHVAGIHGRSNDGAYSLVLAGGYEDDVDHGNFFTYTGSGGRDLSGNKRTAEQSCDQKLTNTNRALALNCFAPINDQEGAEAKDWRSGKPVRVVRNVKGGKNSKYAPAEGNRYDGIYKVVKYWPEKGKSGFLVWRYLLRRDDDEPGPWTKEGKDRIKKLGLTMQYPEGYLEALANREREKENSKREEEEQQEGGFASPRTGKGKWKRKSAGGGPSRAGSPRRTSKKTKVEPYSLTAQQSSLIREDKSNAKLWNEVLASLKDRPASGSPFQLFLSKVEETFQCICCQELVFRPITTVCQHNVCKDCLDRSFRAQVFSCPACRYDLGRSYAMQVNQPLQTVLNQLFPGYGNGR", "test": "Counterscreen for inhibitors of 5-meCpG-binding domain protein 2 (MBD2): TRFRET-based biochemical high throughput dose response assay to identify inhibitors of binding of ubiquitin-like with PHD and ring finger domains 1 (UHRF1) to methylated oligonucleotide."}, "[22]": {"test": "A549 cell cytotoxicity, dose response, cytotoxicity control, CellTiter-Glo luminescence, dry powder, set 18 (AID 1117290)", "format": "functional, cell-based"}, "[23]": {"test": "HepG2 cell cytotoxicity, dose response, cytotoxicity control, CellTiter-Glo luminescence, dry powder, set 20 (AID 1117291)", "format": "functional, cell-based"}, "[24]": {"test": "Dose-response inhibition of insulin secretion in a rat insulinoma line at 5 mM glucose (AID 1117331)", "format": "functional, cell-based", "settings": "INS-1E"}, "[25]": {"biological_target": "T4, Endoplasmic reticulum aminopeptidase 1 (Homo sapiens, UniProt Q9NZ08)", "T4 sequence (Q9NZ08 whole entry)": "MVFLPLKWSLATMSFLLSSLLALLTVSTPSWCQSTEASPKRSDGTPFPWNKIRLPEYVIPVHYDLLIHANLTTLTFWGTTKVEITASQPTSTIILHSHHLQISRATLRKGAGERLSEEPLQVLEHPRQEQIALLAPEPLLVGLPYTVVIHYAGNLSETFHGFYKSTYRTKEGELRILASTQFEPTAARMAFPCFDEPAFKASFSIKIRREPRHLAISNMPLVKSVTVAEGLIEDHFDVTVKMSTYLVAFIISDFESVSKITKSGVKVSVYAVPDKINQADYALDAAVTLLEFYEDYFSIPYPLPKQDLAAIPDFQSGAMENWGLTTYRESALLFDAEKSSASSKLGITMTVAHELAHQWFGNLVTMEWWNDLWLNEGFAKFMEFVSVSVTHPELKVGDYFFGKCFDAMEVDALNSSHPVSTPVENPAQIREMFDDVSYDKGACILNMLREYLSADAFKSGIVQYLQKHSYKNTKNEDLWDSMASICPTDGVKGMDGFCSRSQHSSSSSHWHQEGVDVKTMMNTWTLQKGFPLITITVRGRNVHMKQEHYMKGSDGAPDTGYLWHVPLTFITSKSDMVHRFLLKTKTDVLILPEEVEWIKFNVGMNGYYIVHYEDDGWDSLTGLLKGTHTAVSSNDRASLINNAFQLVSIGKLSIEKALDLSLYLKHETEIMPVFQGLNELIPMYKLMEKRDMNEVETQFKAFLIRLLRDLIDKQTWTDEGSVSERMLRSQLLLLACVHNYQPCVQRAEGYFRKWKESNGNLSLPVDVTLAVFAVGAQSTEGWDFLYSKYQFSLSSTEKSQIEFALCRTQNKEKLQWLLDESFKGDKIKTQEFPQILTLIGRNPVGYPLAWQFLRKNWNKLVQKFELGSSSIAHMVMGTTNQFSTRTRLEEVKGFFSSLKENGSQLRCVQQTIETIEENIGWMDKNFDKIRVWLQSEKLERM", "test": "ERAP1 enzyme inhibitors, dose response, biochemical, fluorescence plate reader, dry powder (AID 1117292)", "format": "functional"}, "[26]": {"biological_target": "T4, Endoplasmic reticulum aminopeptidase 1", "test": "ERAP1 aminopeptidase inhibitors, dose response, biochemical, cherry-pick, set 2, plate reader (AID 743314)"}}, "note": "Active and inactive are the calls of the source."}
{"smiles": "CCCCCCCCCCCCCCCC[n+]1ccccc1", "values": [{"measurement": "IC50", "setting": "cells", "result": "> 33.3 µM (inactive)"}, {"measurement": "IC50", "setting": "[1]", "result": "1.25 µM (active)"}, {"measurement": "IC50", "setting": "[2]", "result": "2.29 µM (active)"}, {"measurement": "IC50", "setting": "[3]", "result": "1.61 µM (active)"}, {"measurement": "AC50", "setting": "[4]", "result": "4.22 µM (active)"}, {"measurement": "AC50", "setting": "[5]", "result": "3.79 µM (active)"}, {"measurement": "IC50", "setting": "[6]", "result": "1.64 µM (active)"}, {"measurement": "IC50", "setting": "[7]", "result": "61.1 µM (active)"}, {"measurement": "IC50", "setting": "[8]", "result": "1.19 µM (active)"}, {"measurement": "IC50", "setting": "[9]", "result": "2.29 µM (active)"}, {"measurement": "IC50", "setting": "Phospholipase A2", "result": "8.34 µM (active)"}, {"measurement": "IC50", "setting": "[10]", "result": "> 10 µM (inactive)"}, {"measurement": "IC50", "setting": "[11]", "result": "1.93 µM (active)"}, {"measurement": "IC50", "setting": "[12]", "result": "14.8 µM (inactive)"}, {"measurement": "CC50", "setting": "[13]", "result": "11.8 µM (active)"}, {"measurement": "IC50", "setting": "Cysteine protease ATG4B", "result": "7.14 µM (active)"}, {"measurement": "IC50", "setting": "[14]", "result": "1.27 µM (active)"}, {"measurement": "IC50", "setting": "[15]", "result": "> 20 µM (inactive)"}, {"measurement": "IC50", "setting": "[16]", "result": "0.934 µM (active)"}]}
{"smiles": "COc1ccc(C(=O)NCCN(C)C)c2nc3ccccc3cc12", "values": [{"measurement": "EC50", "setting": "HEK293 [17]", "result": "> 59.5 µM (inactive)"}, {"measurement": "EC50", "setting": "HEK293 [18]", "result": "> 59.5 µM (inactive)"}, {"measurement": "AC50", "setting": "[5]", "result": "1.04 µM (active)"}, {"measurement": "AC50", "setting": "[19]", "result": "5.78 µM (active)"}, {"measurement": "AC50", "setting": "[20]", "result": "5.16 µM (active)"}, {"measurement": "IC50", "setting": "[21]", "result": "9.07 µM (active)"}]}
{"smiles": "COc1ccc(S(=O)(=O)Nc2cc(C(F)(F)F)ccc2N2CCCCC2)cc1", "values": [{"measurement": "AC50", "setting": "[22]", "result": "46 µM (active)"}, {"measurement": "AC50", "setting": "[23]", "result": "33.8 µM (active)"}]}
{"smiles": "Cc1cc(-n2nc3ccc(Cl)cc3n2)c(O)c(C(C)(C)C)c1", "note": "[BUMETRIZOLE]", "values": [{"measurement": "IC50", "setting": "[24]", "result": "> 33.3 µM (inactive)"}]}
{"smiles": "CC(=O)N1CCN(C(=O)C2(NC(=O)Nc3ccc(C)cc3)CCCCC2)CC1", "values": [{"measurement": "AC50", "setting": "[25]", "result": "24.8 µM (active)"}, {"measurement": "AC50", "setting": "[26]", "result": "8.21 µM (active)"}]}
